Experimental findings from patent publication US20070072829A1, “Fungicidal composition comprising a pyridylmethylbenzamide derivative and a sulfamide derivative” (priority 2003, published 2007) are described below.

The assay deals with Plasmopara viticola. In words: 72 h preventive treatment of vine plants against vine downy mildew, Abbott efficacy, Tammes and Colby analysis. The class given is in vivo.
Where [1] appears, read: Compound Ia share of the mixture, or Compound Ia alone.
Setting [2] is: tolylfluanid share of the mixture, or tolylfluanid alone.

For `O=C(NCc1ncc(C(F)(F)F)cc1Cl)c1c(Cl)cccc1Cl` [Compound Ia, 2,6-dichloro-N-{[3-chloro-5-(trifluoromethyl)-2-pyridinyl]methyl}benzamide], under setting [1], the “ED70: Practical doses for 70% efficacy, dose of Compound Ia” value came out at 27 µg/mL and the “ED90: Practical doses for 90% efficacy, dose of Compound Ia” value turned out to be 65 µg/mL.
Turning to `Cc1ccc(N(SC(F)(Cl)Cl)S(=O)(=O)N(C)C)cc1` [Tolylfluanid, N-dichlorofluoromethylthio-N′,N′-dimethyl-N-p-tolylsulfamide], under setting [2], the “ED70: Practical doses for 70% efficacy, dose of tolylfluanid” value came to 231.4 µg/mL and the “ED90: Practical doses for 90% efficacy, dose of tolylfluanid” value was 533.6 µg/mL.
